{
  "source": "patent US4539206A",
  "about": "“Topical compositions containing copper (II) complexes of 3,5-dioxo-pyrazolidine derivatives and methods of combatting inflammation with them” (Alcusal Incorporated Pty. Ltd., priority 1981, dated 1985)",
  "key": {"[1]": {"system": "arthritis induced by arthritogenic adjuvant (M. tuberculosis in squalane)", "test": "anti-arthritic activity in established adjuvant arthritis, topical application", "type": "in vivo, PVG x DA rats", "conditions": "day 12 to day 16, once daily 5 ml/kg for 4 days, means ± standard error; for increase in paw thickness (mm), tail: DMSO controls 0.9 ± 0.2; for increase in paw thickness (mm), rear paws: DMSO controls 2.2 ± 0.1"}, "[2]": {"test": "Bio-distribution of ^64 Cu(PB)2.x DMSO after topical application to rats", "type": "in vivo, male white rats", "conditions": "for Bio-distribution of ^64 Cu as % of Original Applied, Faeces: assumed faecal output; for Bio-distribution of ^64 Cu as % of Original Applied, Blood (20 ml): assumed total blood volume; for Bio-distribution of ^64 Cu as % of Original Applied, Urine: assumed urine output", "protocol": "(1) The copper (II) phenylbutazone complex labelled with ^64 Cu was prepared as follows: Radioactive copper (II) acetate containing 3 mCi of ^64 Cu (A.A.E.C. Lucas Heights) was mixed with copper (II) acetate monohydrate (0.250 g), phenylbutazone (0.964 g) and dissolved in DMSO (10 ml). Glycerol (2.5 ml) was added later.\nSix male white rats (average weight 250 g) were anaesthetised with halothane and an area of skin (ca 20 cm^2) immediately below the neck was shaved with electric hair clippers. Two aliquots (each 0.75 ml) were applied to each rat, whilst anaesthetised, over a period of one hour.\nEach rat was placed separately in an experimental cage which permitted collection of both urine and faeces. At times of 6, 24 and 48 hours after topical application, two rats were anaesthetised with ether and euthenased by decapitation in a guillotine. Each organ except the thymus, spleen and the adrenals were cut into two samples for more accurate counting. This was done on a Packard automatic γ spectrometer for periods from 1 to 10 minutes.\nAll counts were corrected to zero time per gram of wet tissue. After 24 and 48 hours, the faeces were dry and the activity in them is not recorded in FIG. 3.\nIn Table 1, the results for the location in the rats of the ^64 Cu activity at 6, 24 and 48 hours after topical application are shown."}, "[3]": {"system": "sodium carrageenan-induced paw oedema", "conditions": "5 ml/kg, 0.1 M copper (II) acetate containing 0.25 M phenylbutazone in DMSO, controls DMSO", "protocol": "(§1) We have carried out assays for acute anti-inflammatory and anti-arthritic activities by procedures described previously in W. R. Walker, S. J. Beveridge and M. W. Whitehouse, \"Anti-inflammatory Activity of a Dermally Applied Copper Salicylate Preparation (Alcusal)\", Agents and Actions 10, 38 (1980).\n(§2) (a) Male Wistar rats were shaved (ca 20 cm^2) behind the neck and a solution of 0.1 M copper (II) acetate containing 0.25 M phenylbutazone in DMSO was applied (5 ml/kg). The first application was made 2.5 hr before injecting sodium carrageenan solution into the paw (a 0.1 ml injection delivering 1 mg in 0.15 M NaCl) to induce oedema. A second application of the copper phenylbutazone, if made, was at 1.5 hr before the carrageenan was injected.\n(§3) The swelling was measured unidimensionally as increase in paw thickness after 2 and 4 hrs using a micrometer screw gauge. Controls were treated with DMSO only."}, "[4]": {"system": "hydroxylapatite-induced paw swelling", "conditions": "applied ×2; hydroxylapatite 50 mg/ml, 0.15 ml injected", "protocol": "as §1, §2, §3"}, "[5]": {"conditions": "Cu^2+ + 2HPB = [Cu(PB)2] + 2H^+, room temperature, DMSO, absorbance at 430 nm", "protocol": "The following solutions were prepared in DMSO using stock solutions of 0.01 M copper (II) acetate (A) and 0.20 M phenylbutazone (B)\nand the spectra were measured using a Varian Techtron 634S UV-visible spectrophotometer and 1 cm cells.\nIn FIG. 2, a plot of absorbance (arbitrary scale) at 430 nm versus molar ratio of phenylbutazone (HPB) to copper has been made. […]"}, "[6]": {"conditions": "applied ×1 (2.5 hr before carrageenan)"}, "[7]": {"conditions": "applied ×2 (2.5 and 1.5 hr before carrageenan)"}},
  "note": "Where two headings read alike, the source gives them in different places.",
  "data": [
    {"smiles": "CCCC[c-]1c(=O)n(-c2ccccc2)n(-c2ccccc2)c1=O.CCCC[c-]1c(=O)n(-c2ccccc2)n(-c2ccccc2)c1=O.[Cu+2]", "note": "[[Cu(PB)2].x(DMSO), copper (II) di(phenylbutazone)]", "values": [
      {"measurement": "increase in paw thickness (mm), tail", "setting": "[1]", "result": "0.3 ± 0.2", "unit": "mm"},
      {"measurement": "increase in paw thickness (mm), rear paws", "setting": "[1]", "result": "0.4 ± 0.1", "unit": "mm"},
      {"measurement": "absorption after topical application", "setting": "[2]; result in words", "result": "readily enters the bloom stream"},
      {"measurement": "dermal penetration", "setting": "[2]; result in words", "result": "excellent dermal penetration"},
      {"measurement": "% inhibition of paw swelling at 2 hr", "setting": "[3]; [6]", "result": 34, "unit": "%"},
      {"measurement": "% inhibition of paw swelling at 4 hr", "setting": "[3]; [6]", "result": 33, "unit": "%"},
      {"measurement": "% inhibition of paw swelling at 2 hr", "setting": "[3]; [7]", "result": 65, "unit": "%"},
      {"measurement": "% inhibition of paw swelling at 4 hr", "setting": "[3]; [7]", "result": 71, "unit": "%"},
      {"measurement": "% inhibition of paw swelling at 2 hr", "setting": "[4]", "result": 42, "unit": "%"},
      {"measurement": "% inhibition of paw swelling at 4 hr", "setting": "[4]", "result": 76, "unit": "%"},
      {"measurement": "equilibrium constant, log K", "setting": "[5]; listed as Cu(PB)2. xDMSO", "result": "~4.7"},
      {"measurement": "equilibrium constant, log K", "setting": "[5]; listed as [Cu(PB)2 ]", "result": "~ 4.7"}
    ]},
    {"smiles": "CCCCC1C(=O)N(c2ccccc2)N(c2ccccc2)C1=O", "note": "[HPB, phenylbutazone, reference compound]", "values": [
      {"measurement": "increase in paw thickness (mm), tail", "setting": "[1]", "result": "0.3 ± 0.1", "unit": "mm"},
      {"measurement": "increase in paw thickness (mm), rear paws", "setting": "[1]", "result": "1.0 ± 0.2", "unit": "mm"}
    ]},
    {"smiles": "CCCC[c-]1c(=O)n(-c2ccccc2)n(-c2ccccc2)c1=O.CCCC[c-]1c(=O)n(-c2ccccc2)n(-c2ccccc2)c1=O.[64Cu+2]", "note": "[^64 Cu(PB)2.x DMSO]", "values": [
      {"measurement": "Bio-distribution of ^64 Cu as % of Original Applied, Adrenals", "setting": "[2]; 6 h", "result": "-- (less than 0.004%)"},
      {"measurement": "Bio-distribution of ^64 Cu as % of Original Applied, Brain", "setting": "[2]; 6 h", "result": 0.02, "unit": "%"},
      {"measurement": "Bio-distribution of ^64 Cu as % of Original Applied, Heart", "setting": "[2]; 6 h", "result": 0.01, "unit": "%"},
      {"measurement": "Bio-distribution of ^64 Cu as % of Original Applied, Kidney", "setting": "[2]; 6 h", "result": 0.04, "unit": "%"},
      {"measurement": "Bio-distribution of ^64 Cu as % of Original Applied, Liver", "setting": "[2]; 6 h", "result": 6.22, "unit": "%"},
      {"measurement": "Bio-distribution of ^64 Cu as % of Original Applied, Skin (application site)", "setting": "[2]; 6 h", "result": 5.34, "unit": "%"},
      {"measurement": "Bio-distribution of ^64 Cu as % of Original Applied, Spleen", "setting": "[2]; 6 h", "result": 0.01, "unit": "%"},
      {"measurement": "Bio-distribution of ^64 Cu as % of Original Applied, Thymus", "setting": "[2]; 6 h", "result": 0.01, "unit": "%"},
      {"measurement": "Bio-distribution of ^64 Cu as % of Original Applied, Faeces", "setting": "[2]; 6 h", "result": 0.07, "unit": "%"},
      {"measurement": "Bio-distribution of ^64 Cu as % of Original Applied, Blood (20 ml)", "setting": "[2]; 6 h", "result": 0.09, "unit": "%"},
      {"measurement": "Bio-distribution of ^64 Cu as % of Original Applied, Urine", "setting": "[2]; 6 h", "result": 0.04, "unit": "%"},
      {"measurement": "Bio-distribution of ^64 Cu as % of Original Applied, Adrenals", "setting": "[2]; 24 h", "result": "-- (less than 0.004%)"},
      {"measurement": "Bio-distribution of ^64 Cu as % of Original Applied, Brain", "setting": "[2]; 24 h", "result": 0.01, "unit": "%"},
      {"measurement": "Bio-distribution of ^64 Cu as % of Original Applied, Heart", "setting": "[2]; 24 h", "result": "-- (less than 0.004%)"},
      {"measurement": "Bio-distribution of ^64 Cu as % of Original Applied, Kidney", "setting": "[2]; 24 h", "result": 0.04, "unit": "%"},
      {"measurement": "Bio-distribution of ^64 Cu as % of Original Applied, Liver", "setting": "[2]; 24 h", "result": 0.17, "unit": "%"},
      {"measurement": "Bio-distribution of ^64 Cu as % of Original Applied, Skin (application site)", "setting": "[2]; 24 h", "result": 3.81, "unit": "%"},
      {"measurement": "Bio-distribution of ^64 Cu as % of Original Applied, Spleen", "setting": "[2]; 24 h", "result": "-- (less than 0.004%)"},
      {"measurement": "Bio-distribution of ^64 Cu as % of Original Applied, Thymus", "setting": "[2]; 24 h", "result": "-- (less than 0.004%)"},
      {"measurement": "Bio-distribution of ^64 Cu as % of Original Applied, Faeces", "setting": "[2]; 24 h", "result": 28.9, "unit": "%"},
      {"measurement": "Bio-distribution of ^64 Cu as % of Original Applied, Blood (20 ml)", "setting": "[2]; 24 h", "result": 0.08, "unit": "%"},
      {"measurement": "Bio-distribution of ^64 Cu as % of Original Applied, Urine", "setting": "[2]; 24 h", "result": 0.21, "unit": "%"},
      {"measurement": "Bio-distribution of ^64 Cu as % of Original Applied, Adrenals", "setting": "[2]; 48 h", "result": "-- (less than 0.004%)"},
      {"measurement": "Bio-distribution of ^64 Cu as % of Original Applied, Brain", "setting": "[2]; 48 h", "result": 0.01, "unit": "%"},
      {"measurement": "Bio-distribution of ^64 Cu as % of Original Applied, Heart", "setting": "[2]; 48 h", "result": "-- (less than 0.004%)"},
      {"measurement": "Bio-distribution of ^64 Cu as % of Original Applied, Kidney", "setting": "[2]; 48 h", "result": 0.04, "unit": "%"},
      {"measurement": "Bio-distribution of ^64 Cu as % of Original Applied, Liver", "setting": "[2]; 48 h", "result": 0.15, "unit": "%"},
      {"measurement": "Bio-distribution of ^64 Cu as % of Original Applied, Skin (application site)", "setting": "[2]; 48 h", "result": 1.02, "unit": "%"},
      {"measurement": "Bio-distribution of ^64 Cu as % of Original Applied, Spleen", "setting": "[2]; 48 h", "result": 0.01, "unit": "%"},
      {"measurement": "Bio-distribution of ^64 Cu as % of Original Applied, Thymus", "setting": "[2]; 48 h", "result": "-- (less than 0.004%)"},
      {"measurement": "Bio-distribution of ^64 Cu as % of Original Applied, Faeces", "setting": "[2]; 48 h", "result": 49.9, "unit": "%"},
      {"measurement": "Bio-distribution of ^64 Cu as % of Original Applied, Blood (20 ml)", "setting": "[2]; 48 h", "result": 0.08, "unit": "%"},
      {"measurement": "Bio-distribution of ^64 Cu as % of Original Applied, Urine", "setting": "[2]; 48 h", "result": 0.40, "unit": "%"},
      {"measurement": "^64 Cu found in the faeces", "setting": "[2]; after two days, topical application, 2880 min", "result": "about 50%"},
      {"measurement": "clearance of ^64 Cu from the system", "setting": "[2]; result in words", "result": "cleared from the system in several days"},
      {"measurement": "activity of ^64 Cu in the skin at the site of application", "setting": "[2]; result in words, 6 to 48 h", "result": "decreases linearly with time"}
    ]}
  ]
}
